# Laboratory results taken from US20200354348A1, “SEMISYNTHETIC AURONES AND METHODS OF USE THEREOF” (University of Kentucky Research Foundation, priority 2018, published 2020).
# Where a name gives a salt, the structure may show the parent alone.
# Tests used:
# PC-3 cells = assay: Proliferation inhibition assay, PC-3; format: cell-based
# Experimental: (§1) Cell Culture. LS174T (colon cancer cells), PC-3 (prostate cancer cells), MCF-7 (beast) and A549 (lung) were cultured in the medium recommended by American Type Culture Collection at 37° C. with 5% CO2 atmosphere in a water jacketed incubator. Ovcar-8 and NCI/ADR-RES are gifts from Dr. Markos Leggas. Alpha-tubulin antibodies, TRITC-conjugated anti-rabbit antibody.
# (§2) Proliferation inhibition assay. Cancer cells were seeded into 24-well plates at a density of 20,000 cells per well in 1 mL of culture medium and cultured overnight at 37° C. Compounds and the vehicle control DMSO were added to the cells. After 6 days, medium was removed and 100 μL of trypsin was added. Then the cells resuspended in pbs were counted by Vi-CELL XR 2.03 (Beckman Coulter, Inc. USA). The ratio R of the number of viable cells in the compound treatment group to the number of viable cells in DMSO treatment group was taken as relative growth, and the percentage growth inhibition was calculated as: (1−R)*100. For initial testing, compounds were added to the cells at a final concentration 10 μM. Active compounds at 10 μM would be tested at lower concentrations.
# LS174T cells = assay: Proliferation inhibition assay, LS174T; format: cell-based; details: for inhibition at 1 µM / inhibition at 10 µM / inhibition at 0.3 µM: Homo sapiens, LS174T; for inhibition at 0.3 µM: 300 nM
# Experimental: as §1, §2
# [1] = Homo sapiens, PC-3, 1 μM, Table 1
# [2] = Homo sapiens, PC-3, 10 μM, Table 1
# [3] = Homo sapiens, PC-3, 10 μM, Table 2
# [4] = Homo sapiens, PC-3, 1 μM, Table 2
# [5] = Homo sapiens, PC-3, 300 nM, Table 2
compound,measurement,setting,value
CN1CCN(c2ccc(/C=C3\Oc4cc(O)ccc4C3=O)cc2)CC1 (as salt: hydrochloride),melting point,,> 220 °C
"O=C1/C(=C/c2ccc(N3CCCC3)cc2)Oc2cc(O)ccc21 [Aurone 2a, (2Z)-6-Hydroxy-2-(4-pyrrolidin-1-ylbenzylidene)-1-benzofuran-3(2H)-one]",melting point,,> 220 °C
O=C1/C(=C/c2ccc(N3CCCC3)cc2)Oc2cc(O)ccc21 [Aurone 2a],inhibition at 1 µM,PC-3 cells; [1],2.1 ± 7.1%
same,inhibition at 10 µM,PC-3 cells; [2],95 ± 4.7%
same,inhibition at 1 µM,"LS174T cells; 1 μM, Table 1",0%
same,inhibition at 10 µM,"LS174T cells; 10 μM, Table 1",23 ± 2.9%
"O=C1/C(=C/c2ccc(N3CCOCC3)cc2)Oc2cc(O)ccc21 [Aurone 2b, (2Z)-6-Hydroxy-2-(4-morpholin-4-ylbenzylidene)-1-benzofuran-3(2H)-one]",melting point,,> 220 °C
O=C1/C(=C/c2ccc(N3CCOCC3)cc2)Oc2cc(O)ccc21 [Aurone 2b],inhibition at 10 µM,PC-3 cells; [2],7.8 ± 7.7%
same,inhibition at 10 µM,"LS174T cells; 10 μM, Table 1",0%
"O=C1/C(=C/c2ccc(N3CCSCC3)cc2)Oc2cc(O)ccc21 [Aurone 2d, (2Z)-6-Hydroxy-2-[(4-thiomorpholin-4-ylbenzylidene)]-1-benzofuran-3(2H)-one]",melting point,,> 220 °C
"CN(C)c1ccc(/C=C2\Oc3cc(O)ccc3C2=O)c(Cl)c1 [Aurone 2e, (2Z)-2-[2-Chloro-4-(dimethylamino)benzylidene]-6-hydroxy-1-benzofuran-3(2H)-one]",melting point,,> 220 °C
"CCN(CC)c1ccc(/C=C2\Oc3cc(O)ccc3C2=O)c(OC)c1 [Aurone 2f, (2Z)-2-[4-(Diethylamino)-2-methoxybenzylidene]-6-hydroxy-1-benzofuran-3(2H)-one]",melting point,,> 220 °C
"O=C1/C(=C/c2ccccn2)Oc2cc(O)ccc21 [Aurone 3a, (2Z)-6-Hydroxy-2-(pyridin-2-ylmethylene)-1-benzofuran-3(2H)-one]",melting point,,246 to 248 °C
O=C1/C(=C/c2ccccn2)Oc2cc(O)ccc21 [Aurone 3a],inhibition at 10 µM,PC-3 cells; [2],8.8 ± 15%
same,inhibition at 10 µM,"LS174T cells; 10 μM, Table 1",0%
"O=C1/C(=C/c2cccnc2)Oc2cc(O)ccc21 [Aurone 3b, (2Z)-6-Hydroxy-2-(pyridin-3-ylmethylene)-1-benzofuran-3(2H)-one]",melting point,,255 to 257 °C
O=C1/C(=C/c2cccnc2)Oc2cc(O)ccc21 [Aurone 3b],inhibition at 10 µM,PC-3 cells; [2],0%
same,inhibition at 10 µM,"LS174T cells; 10 μM, Table 1",11 ± 3.6%
"O=C1/C(=C/c2nccc3ccccc23)Oc2cc(O)ccc21 [Aurone 3d, (2Z)-6-Hydroxy-2-(isoquinolin-1-ylmethylene)-1-benzofuran-3(2H)-one]",melting point,,> 220 °C
O=C1/C(=C/c2nccc3ccccc23)Oc2cc(O)ccc21 [Aurone 3d],inhibition at 10 µM,PC-3 cells; [2],88 ± 5.5%
same,inhibition at 1 µM,"LS174T cells; 1 μM, Table 1",2.7 ± 6.4%
same,inhibition at 10 µM,"LS174T cells; 10 μM, Table 1",79 ± 3.6%
"O=C1/C(=C/c2ccc3ccccc3n2)Oc2cc(O)ccc21 [Aurone 3e, (2Z)-6-Hydroxy-2-(quinolin-2-ylmethylene)-1-benzofuran-3(2H)-one]",melting point,,249 to 251 °C
O=C1/C(=C/c2ccc3ccccc3n2)Oc2cc(O)ccc21 [Aurone 3e],inhibition at 1 µM,PC-3 cells; [1],26 ± 8.6%
same,inhibition at 10 µM,PC-3 cells; [2],99 ± 0.2%
same,inhibition at 1 µM,"LS174T cells; 1 μM, Table 1",7.7 ± 9.9%
same,inhibition at 10 µM,"LS174T cells; 10 μM, Table 1",96 ± 0.9%
"COc1ccc2nc(/C=C3\Oc4cc(O)ccc4C3=O)ccc2c1 [Aurone 3f, (2Z)-6-Hydroxy-2-[(6-methoxyquinolin-2-yl)methylene]-1-benzofuran-3(2H)-one]",melting point,,269 to 271 °C
COc1ccc2nc(/C=C3\Oc4cc(O)ccc4C3=O)ccc2c1 [Aurone 3f],inhibition at 10 µM,PC-3 cells; [2],8.4 ± 33%
same,inhibition at 10 µM,"LS174T cells; 10 μM, Table 1",6.1 ± 13%
"COc1cccc2ccc(/C=C3\Oc4cc(O)ccc4C3=O)nc12 [Aurone 3g, (2Z)-6-Hydroxy-2-[(8-methoxyquinolin-2-yl)methylene]-1-benzofuran-3(2H)-one]",melting point,,250 to 252 °C
COc1cccc2ccc(/C=C3\Oc4cc(O)ccc4C3=O)nc12 [Aurone 3g],inhibition at 1 µM,PC-3 cells; [1],40 ± 8.4%
same,inhibition at 10 µM,PC-3 cells; [2],97 ± 0.8%
same,inhibition at 1 µM,"LS174T cells; 1 μM, Table 1",20 ± 9.1%
same,inhibition at 10 µM,"LS174T cells; 10 μM, Table 1",91 ± 2.4%
"O=C1/C(=C/c2ccnc3ccccc23)Oc2cc(O)ccc21 [Aurone 3h, (2Z)-6-Hydroxy-2-(quinolin-4-ylmethylene)-1-benzofuran-3(2H)-one]",melting point,,278 to 280 °C
O=C1/C(=C/c2ccnc3ccccc23)Oc2cc(O)ccc21 [Aurone 3h],inhibition at 1 µM,PC-3 cells; [1],16 ± 3.5%
same,inhibition at 10 µM,PC-3 cells; [2],63 ± 7.2%
same,inhibition at 10 µM,"LS174T cells; 10 μM, Table 1",34 ± 11%
"O=C1/C(=C/c2c[nH]c3ccccc23)Oc2cc(O)ccc21 [Aurone 3i, (2Z)-6-Hydroxy-2-(1H-indol-3-ylmethylene)-1-benzofuran-3(2H)-one]",melting point,,280 to 282 °C
O=C1/C(=C/c2c[nH]c3ccccc23)Oc2cc(O)ccc21 [Aurone 3i],inhibition at 10 µM,PC-3 cells; [2],20 ± 6.8%
same,inhibition at 10 µM,"LS174T cells; 10 μM, Table 1",44 ± 8.6%
Cn1cc(/C=C2\Oc3cc(O)ccc3C2=O)c2ccccc21 [Aurone 3j],inhibition at 10 µM,PC-3 cells; [2],41 ± 25%
same,inhibition at 10 µM,"LS174T cells; 10 μM, Table 1",54 ± 15%
COc1ccc2c(c1)c(/C=C1\Oc3cc(O)ccc3C1=O)cn2C [Aurone 3k],inhibition at 1 µM,PC-3 cells; [1],17 ± 5.5%
same,inhibition at 10 µM,PC-3 cells; [2],35 ± 28%
same,inhibition at 1 µM,"LS174T cells; 1 μM, Table 1",13 ± 2.4%
same,inhibition at 10 µM,"LS174T cells; 10 μM, Table 1",63 ± 0.7%
CCn1cc(/C=C2\Oc3cc(O)ccc3C2=O)c2cc(OC)ccc21 [Aurone 3l],inhibition at 1 µM,PC-3 cells; [1],13 ± 9.5%
same,inhibition at 10 µM,PC-3 cells; [2],69 ± 16%
same,inhibition at 1 µM,"LS174T cells; 1 μM, Table 1",4.5 ± 7.3%
same,inhibition at 10 µM,"LS174T cells; 10 μM, Table 1",83 ± 1.2%
CCn1cc(/C=C2\Oc3cc(OCC#N)ccc3C2=O)c2cc(O)ccc21 [Aurone 4b],Inhibition of PC-3 Cells 300 nM,"PC-3 cells; 300 nM, Table 2",24 ± 11%
same,Inhibition of PC-3 Cells 1 μM,"PC-3 cells; 1 μM, Table 2",96 ± 2%
same,Inhibition of PC-3 Cells 10 μM,"PC-3 cells; 10 μM, Table 2",96 ± 1.6%
same,Inhibition of LS174T Cells 1 μM,"LS174T cells; 1 μM, Table 2",26 ± 15%
same,Inhibition of LS174T Cells 10 μM,"LS174T cells; 10 μM, Table 2",83 ± 4.8%
Cn1cc(/C=C2\Oc3cc(OCc4ccccc4F)ccc3C2=O)c2ccccc21 [Aurone 4d],inhibition at 10 µM,PC-3 cells; [3],0%
same,inhibition at 10 µM,"LS174T cells; 10 μM, Table 2",7.1 ± 17%
Cn1cc(/C=C2\Oc3cc(OCc4ccccc4Cl)ccc3C2=O)c2ccccc21 [Aurone 4e],inhibition at 10 µM,PC-3 cells; [3],20 ± 6.6%
same,inhibition at 10 µM,"LS174T cells; 10 μM, Table 2",0%
Cn1cc(/C=C2\Oc3cc(OCc4c(F)cccc4F)ccc3C2=O)c2ccccc21 [Aurone 4f],inhibition at 10 µM,PC-3 cells; [3],82 ± 4.3%
same,inhibition at 10 µM,"LS174T cells; 10 μM, Table 2",0.5 ± 1.7%
Cn1cc(/C=C2\Oc3cc(OCc4c(F)cccc4Cl)ccc3C2=O)c2ccccc21 [Aurone 4h],inhibition at 1 µM,PC-3 cells; [4],0%
same,inhibition at 10 µM,PC-3 cells; [3],31 ± 40%
same,inhibition at 10 µM,"LS174T cells; 10 μM, Table 2",38 ± 2%
COc1ccc2c(c1)c(/C=C1\Oc3cc(OCc4c(F)cccc4Cl)ccc3C1=O)cn2C [Aurone 4k],inhibition at 10 µM,PC-3 cells; [3],57 ± 18%
same,inhibition at 10 µM,"LS174T cells; 10 μM, Table 2",53 ± 8.9%
CCn1cc(/C=C2\Oc3cc(OCc4ccccc4F)ccc3C2=O)c2cc(OC)ccc21 [Aurone 4n],inhibition at 1 µM,PC-3 cells; [4],28 ± 15%
same,inhibition at 10 µM,PC-3 cells; [3],52 ± 23%
same,inhibition at 1 µM,"LS174T cells; 1 μM, Table 2",0%
same,inhibition at 10 µM,"LS174T cells; 10 μM, Table 2",28 ± 11%
CCn1cc(/C=C2\Oc3cc(OCc4c(Cl)cccc4Cl)ccc3C2=O)c2cc(OC)ccc21 [Aurone 4o],inhibition at 0.3 µM,PC-3 cells; [5],3.9 ± 11%
same,inhibition at 1 µM,PC-3 cells; [4],67 ± 5.8%
same,inhibition at 10 µM,PC-3 cells; [3],96 ± 1.1%
same,inhibition at 0.3 µM,LS174T cells; Table 2,3.3 ± 24%
same,inhibition at 1 µM,"LS174T cells; 1 μM, Table 2",7.3 ± 18%
same,inhibition at 10 µM,"LS174T cells; 10 μM, Table 2",94 ± 1.7%
CCn1cc(/C=C2\Oc3cc(OCc4c(F)cccc4Cl)ccc3C2=O)c2ccccc21 [Aurone 4p],inhibition at 0.3 µM,PC-3 cells; [5],44 ± 5.6%
same,inhibition at 1 µM,PC-3 cells; [4],91 ± 2.2%
same,inhibition at 10 µM,PC-3 cells; [3],95 ± 4.4%
same,inhibition at 1 µM,"LS174T cells; 1 μM, Table 2",5.1 ± 19%
same,inhibition at 10 µM,"LS174T cells; 10 μM, Table 2",93 ± 3.2%
CCn1cc(/C=C2\Oc3cc(OCc4c(Cl)cccc4Cl)ccc3C2=O)c2ccccc21 [Aurone 4q],inhibition at 0.1 µM,"PC-3 cells; Homo sapiens, PC-3, 100 nM, Table 2",17 ± 6.8%
same,inhibition at 0.3 µM,PC-3 cells; [5],75 ± 7.7%
same,inhibition at 1 µM,PC-3 cells; [4],98 ± 1%
same,inhibition at 10 µM,PC-3 cells; [3],97 ± 0.6%
same,inhibition at 0.3 µM,LS174T cells; Table 2,0%
same,inhibition at 1 µM,"LS174T cells; 1 μM, Table 2",93 ± 2.5%
same,inhibition at 10 µM,"LS174T cells; 10 μM, Table 2",96%
